Values of other authors in patent US10758465B2, “Synephrine compositions” (Follea International, priority 2017, dated 2020).

Assays:
alpha1-adrenoceptors = settings: postjunctional alpha1-adrenoceptors
alpha2-adrenoceptors = settings: postjunctional alpha2-adrenoceptors

CNC[C@@H](O)c1ccc(O)cc1 [S-(+)-synephrine]
potency relative to the (−) form (alpha1-adrenoceptors): one to two orders of magnitude less | potency relative to the (−) form (alpha2-adrenoceptors): one to two orders of magnitude less
